Consider one molecule from patent publication US4939133A, “N-substituted-2-hydroxy-α-oxo-benzeneacetamides and pharmaceutical compositions having activity as modulators of the arachidonic acid cascade” (Warner-Lambert Company, priority 1985, dated 1990).

The target in the assay is T1, human leukocyte 5-lipoxygenase (Homo sapiens, UniProt P09917).
T1 construct: endogenous in cells; host or cells: leukocytes from fresh blood of normal adult men
T1 sequence (P09917 1-674): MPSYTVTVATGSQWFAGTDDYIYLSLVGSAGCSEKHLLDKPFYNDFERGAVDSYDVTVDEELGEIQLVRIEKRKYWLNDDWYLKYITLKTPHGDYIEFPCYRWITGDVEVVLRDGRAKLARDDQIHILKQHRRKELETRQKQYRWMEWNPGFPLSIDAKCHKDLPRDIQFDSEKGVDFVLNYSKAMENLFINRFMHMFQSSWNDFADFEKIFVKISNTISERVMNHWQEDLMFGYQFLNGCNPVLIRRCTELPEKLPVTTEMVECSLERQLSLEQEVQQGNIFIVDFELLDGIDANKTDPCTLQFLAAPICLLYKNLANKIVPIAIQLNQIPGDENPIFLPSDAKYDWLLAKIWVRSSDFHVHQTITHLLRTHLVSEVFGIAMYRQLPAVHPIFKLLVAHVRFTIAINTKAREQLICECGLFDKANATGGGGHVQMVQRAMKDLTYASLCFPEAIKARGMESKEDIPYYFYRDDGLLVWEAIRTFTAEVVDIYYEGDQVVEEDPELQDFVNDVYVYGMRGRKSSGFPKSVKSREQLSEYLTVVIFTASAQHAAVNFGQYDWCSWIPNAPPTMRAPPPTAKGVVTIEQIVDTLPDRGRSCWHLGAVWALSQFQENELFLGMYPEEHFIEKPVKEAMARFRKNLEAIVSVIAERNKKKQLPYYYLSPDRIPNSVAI
Briefly: 5-Lipoxygenase inhibition in human leukocytes, 5-HETE formation (5LOA1, 5LOA in Table 6). It is filed as cell-based. Particulars: 50% inhibition of 5-HETE formation, E -number means X 10^-no., read-out: IC50 (5LOA). An excerpt:
To Evaluate the Effect of Each Compounds as a 5-Lipoxygenase Inhibitor in Comparison to Standard Reference Agents in Human Leukocytes (5LOAl)
The purpose of this assay is to evaluate the activity of each compound as an inhibitor of human leukocyte 5-lipoxygenase.
Arachidonic acid and calcium ionophore A23187 are obtained from Sigma (St. Louis, MO). Silica gel plates, GF are obtained from Analtech (Newark, DE). Arachidonic acid, (1-^14 C) and 5-HETE (^3 H), 5-(S)-hydroxy-6-trans, 8,11,14-cis eicosatetraenoic acid, are obtained from New England Nuclear (Boston, MA). Six percent Dextran-70 in 0.9% NaCl is obtained from Cuffer Labs (Berkeley, CA).
Preparation of Leukocytes
Fresh blood from normal adult men who had not received any drugs for at least the previous five days is obtained by the Community Research Clinic (WL/PD) using venipuncture and collected into heparinized vacuotainer tubes. To every 100 ml of pooled blood is added 25 ml of dextran solution (6% dextran -70 in 0.9% sodium chloride containing 3% dextrose) and this is mixed gently in a plastic cylinder. The mixture is left to stand at room temperature for at least 90 minutes. The upper layer which is rich in leukocytes and platelets is then carefully decanted into 50 ml plastic tubes and centrifuged at about 100×g for eight minutes in and IEC centrifuge and rotor number 269 (about 600 rpm). The supernatant fluid is discarded and the pellet is resuspended in 10 ml of 0.87% ammonium chloride for exactly two minutes. This procedure is to lyse completely contaminating red blood cells. Leukocytes are then separated by centrifugation for ten minutes. The pellet is washed three times by suspension in 20 ml PBS (sodium chloride, 7.1 g; Na2 HPO4, 1.15 g; KH2 PO4,0.2 g, and KCl, 0.2 g/L) and centrifuged as before. The final pellet is suspended in PBS containing 0.87 mM CaCl2. Viability of the cells is then checked using trypan blue exclusion method and is found to be over 90%.
5-Lipoxygenase Enzyme Assay
Leukocyte cells in suspension (0.98 ml) are incubated with or without test compounds for five minutes at 37° C. in a shaking water bath. At this time a […] mixture is perpared per 1 ml of cell suspension: 100 mM arachidonic acid, 1 μl, 0.05 μCi ^14 C-arachidonic acid in 5 μl; 1 mM calcium ionophore A23187, 10 μl (1). This mixture is added and the incubation continued for five minutes. The reaction is stopped by adding four volumes of absolute ethanol and the mixture is kept in ice for 30 minutes. The floculated precipitate is separated by centrifugation at about 37,000×g for 20 minutes (Beckman Instruments rotor number 40). The alcohol extract is taken to dryness under a stream of nitrogen and the residue is dissolved in 100-200 μl absolute ethanol. At the time any turbidity is removed by centrifugation. An aliquot (25-50 μl) is applied onto 20×20 cm silica gel TLC plate and developed using the following solvent system: diethyl ether, petroleum ether (2040°C.),acetic acid (50:50: 1 v/v). Zones of 1 cm apart are scraped from the TLC plate and transferred to mini-vials. Methanol (0.5 ml) is added to dissolve the radioactivity adsorbed to the silica gel and scintillation fluid (H. P., Beckman), 5 ml is then added and vials are counted in a liquid scintillation counter. A sample of ^3 H-5-HETE is applied and used for the identification of the formed 5-HETE. Total radioactivity in the test as well as the control samples are normalized and the amount of 5-HETE present is calculated accordingly.
IC50 values are defined as the concentrations of test agents which caused a 50% inhibition of the formation of 5-HETE as compared to control and are determined by inspection of the concentration-response curves.

In the case of `COc1ccc(CCc2ccc(NC(=O)c3ccc(C)cc3O)cc2)cc1OC` [Example 46, N-[4-[2-(3,4-Dimethoxyphenyl)ethyl]phenyl]-2-hydroxy-4-methylbenzamide], the IC50 was found to be 500 nM.
